Source: patent US20250276008A1, “USE OF LITHIUM-CONTAINING COMPOUNDS IN TREATMENT OF TUMORS” (Institute of Basic Medical Sciences Chinese Academy of …, priority 2023, published 2025)

Key:
mouse melanoma B16 cells = details: 75 mg/kg by gavage
Protocol: Lithium carbonate is an inorganic compound with the chemical formula Li2CO3 and a molecular weight of 73.89. Lithium carbonate was prepared as follows: • 1) 1.000 g of lithium carbonate (Sigma, WXBC5202V) was weighed and placed in a beaker containing 50 mL of double-distilled water, and the volume was brought to 100 mL with double-distilled water. • 2) The mixture was mixed well in an ice water bath for 2 hours to fully dissolve the lithium carbonate. • 3) The solution was aliquoted into 50 mL centrifuge tubes and stored at 4° C.
(§1) Model establishment: Cultured mouse melanoma B16 cells were resuspended in PBS buffer and inoculated subcutaneously at 1×10^5 cells/mouse into the right back of the mouse, with an injection volume of 50 μL. The needle of a 1 ml syringe was inserted from the right thigh of the mouse, penetrating under the skin to the back, to inject 50 μL of tumor cell suspension subcutaneously to the mouse to form a translucent lump of skin. Care should be taken not to puncture the skin of the mouse. The needle was quickly withdrawn after the injection, so as to avoid any leaking of tumor cells when withdrawing the needle, which would result in tumorigenesis of multiple subcutaneous tumors. Tumor cells were inoculated as soon as possible to maintain cell viability.

human A375 tumor cells = details: humanized NSG mice
Protocol: Model establishment: NOD.Cg-PrkdcIl2rg<tm1Wjl>SzJ (NSG) mice were irradiated with X-ray irradiation (2 Gy). 10^7 PBMCs from healthy volunteers were adopted into NSG mice through the tail vein within 24 hours. After 24 hours, human A375 tumor cells were digested and counted, 4×10^5 of which were inoculated subcutaneously into the right back of NSG mice, and tumorigenesis generally occurred in about seven days.
(§2) The proportion of tumor-infiltrating human CD8^+ T cells was analyzed on Day 18.

CD8^+ T cells [1] = experiment: Cytosolic Ca2+ / lysosomal Ca2+ release in CD8+ T cells; format: cell-based, mouse
Excerpt: Next, we investigated the molecular mechanism by which LC activated TFEB in CD8^+ T cells. It has been reported (Nat Cell Biol. 2015 March;17(3):288-99) that in addition to being able to degrade exogenous or endogenous biomacromolecules, lysosomes, like endoplasmic reticulum and mitochondria, are also storage sites for Ca^2+ and can initiate the transduction of calcium-related downstream signals.
(§3) In order to better track the flow of H^+, ^2D (deuterium)-acetic acid (DAC) or ^2D-sulfuric acid (D2SO4) was added to the culture medium of CD8^+ T cells. […] The K-loop of V-ATPase is located in the hydrophobic lipid bilayer and is essential for the pumping of cytosolic H^+ into the lysosomal lumen. Li^+ has been reported to bind to the K-loop of V-ATPase in Enterococcus hirde and induce deprotonation of the Glul39 residue (J. Am. Chem. Soc. 2011.133. 2860-2863).

PKCθ = test system: PKCθ
Excerpt: PKCθ is a new member of the PKC family, which is activated by DAG and is widely expressed in T lymphocytes. […] This enzyme has PLC activity and catalyzes the production of DAG from lysosomal phospholipids.

CD8^+ T cells [2] = test system: CD8^+ T cells
Excerpt: The lactic acid that enters the mitochondria is further converted into pyruvic acid with the participation of lactate dehydrogenase to enter the TCA cycle for oxidative metabolism. LDHa and LDHb are two major lactate dehydrogenase genes that encode LDHa (also known as M subunit) and LDHb (H subunit). The five LDH isozymes from LDH1 to LDH5 consist of M and H subunits, and are 4H, 3H1M, 2H2M, 1H3M and 4M, respectively.
Furthermore, this study analyzed the molecular mechanism bu which LC promotes the localization and expression of LDHb in mitochondria. […] TFEB is a major regulator of lysosomal functions. […] In addition, Tfeb^fl/fl Lck^cre mice were constructed in this study, and CD8^+ T cells were isolated from the spleen of mice to repeat the above experiments.

[3] = during administration of lithium carbonate 75 mg/kg by gavage
Protocol: as §2

OVA-B16 melanoma cells = test system: OVA-B16 melanoma cells
Protocol: In order to further verify the anti-tumor immune response specific for CD8^+ T cells induced by LC, on the basis of the established tumor-bearing mice above (Example 7), 1×10^6 CD45.1 OT-1 T tumor-specific CD8^+ T cells were sorted and adoptively transferred through the tail vein to wild-type C57 mice 24 hours before the subcutaneous tumor inoculation. After 24 hours, 1×10^5 OVA-B16 melanoma cells were subcutaneously inoculated into the right back of the mice.

lysosomal V-ATPase = experiment: Lysosomal pH, Atp6v0c, H+ (deuterium) flow and Li+ accumulation in CD8+ T cells; format: cell-based, mouse
Protocol: as §3

[4] = patients with bipolar disorder; J Clin Psychopharmacol. 2017; cited from earlier work
4T1 breast cancer [5] = details: 4T1 tumor-bearing mouse model
Excerpt: (§4) The present inventors further established MC38 colon cancer and 4T1 breast cancer tumor-bearing mouse models.

MC38 colon cancer [6] = details: MC38 tumor-bearing mouse model
Excerpt: as §4

CD8^+ T cells [7] = test system: CD8^+ T cells; remark: listed apart in the source
4T1 breast cancer [8] = test system: 4T1 breast cancer
Protocol: as §1
(§5) The present inventor further established MC38 colon cancer and 4T1 breast cancer tumor-bearing mouse models.

MC38 colon cancer [9] = test system: MC38 colon cancer
Protocol: as §1, §5

MCT1 = experiment: Localization of MCT1 to mitochondria (Western blot of isolated T cell mitochondria); format: cell-based, mouse; details: Western blot of isolated T cell mitochondria
Excerpt: The inventor further explored the molecular mechanism by which LC led to the shunting of lactic acid to mitochondria. Entry of lactic acid into mitochondria requires the localization of MCT1 to the inner mitochondrial membrane IMM (Redox Biol. 2020 August;35:101454). […] MCT1 is generally recognized as a secreted protein with an endoplasmic reticulum-targeting sequence that enters the endoplasmic reticulum and localizes to the plasma membrane. We hypothesized that LC could induce MCT1 variants with mitochondrial targeting sequences (MTSs). However, no MCT1 variant was found in LC-treated T cells by sequencing analysis, and only one transcript of MCT1 was found after alignment analysis on NCBI. A MTS was found at the N-terminus of MCT-1protein by protein sequence analysis, which was present downstream of the endoplasmic reticulum targeting sequence, forming a double-peak chimeric sequence. This double-peak sequence may direct MCT-1 to target the endoplasmic reticulum or mitochondria, and may be regulated by serine/threonine phosphorylation of PKA or PKC (Avadhani, N. G. 2011. FEBS J 278, 4218-4229).

O=C([O-])[O-].[Li+].[Li+] [LC, lithium carbonate]
growth of B16 tumors (mouse melanoma B16 cells; 5 doses from Day 7): effectively inhibit | survival of mice (mouse melanoma B16 cells; B16): prolong | number of tumor-infiltrating CD8^+ T cells (mouse melanoma B16 cells; B16, 5 doses from Day 7, Day 18): increase | expression of the effectors IFN-γ and CD107a (mouse melanoma B16 cells; B16, Day 18): increase | tumor growth in mice (human A375 tumor cells): inhibited | infiltration of human CD8^+ T cells (human A375 tumor cells; LC 75 mg/kg gavage, Day 18): significantly increased | expression of Mcoln2 (CD8^+ T cells [1]): increased | cytosolic Ca^2+ concentrations (CD8^+ T cells [1]; results not shown): increased | DAG levels in CD8^+ T cells (PKCθ): increased | expression of acid sphingomyelinase (ASM) in lysosomes (PKCθ): increased | localization of PKCθ to lysosomes (PKCθ): could induce | PKCθ activation (PKCθ; ASM expression interfered with shASM): could not induce | expression of LDHa (CD8^+ T cells [2]): up-regulated | expression of LDHb (CD8^+ T cells [2]): up-regulated | expression and nuclear localization of TFEB (CD8^+ T cells [2]; results not shown): significantly up-regulated | blood lithium concentration of mice (monitored and maintained) [3]: 1 mM | tumor growth in mice (OVA-B16 melanoma cells; OVA-B16): inhibit | expression of the effectors IFN-γ and CD107a (OVA-B16 melanoma cells; OVA-B16, Day 18): increase | number of tumor-infiltrating CD8^+ T cells (OVA-B16 melanoma cells; OVA-B16, OT-1 adoptive transfer model, LC 75 mg/kg gavage, Day 18): increase | efficacy of T cell adoptive therapy (OVA-B16 melanoma cells; OVA-B16 melanoma tumor-bearing mice): enhances | expression of lysosome-related gene Atp6v0c (lysosomal V-ATPase): significantly decreased | lactylation of the Atp6v0c gene (ChIP-seq) (lysosomal V-ATPase): disappeared | entry of deuterium ions into the lysosomal lumen (lysosomal V-ATPase; 2D-acetic acid or 2D-sulfuric acid added to culture medium): significantly inhibited | lysosomal pH (lysosomal V-ATPase; LA-treated cells, increased from 4.4 within 30 minutes): 5.9 | lactic acid levels in the cerebrospinal fluid [4]: significantly down-regulate | therapeutic effect of an anti-PD-1 antibody (tumor size, survival rate) (4T1 breast cancer [5]): enhance | therapeutic effect of an anti-PD-1 antibody (tumor size, survival rate) (MC38 colon cancer [6]): enhance | level of extracellular lactic acid (CD8^+ T cells [7]): reduced | uptake of exogenous lactic acid by CD8^+ T cells (CD8^+ T cells [7]): did not affect | lactic acid in mitochondria (CD8^+ T cells [7]; 2D-lactic acid tracing, 2 hours after treating with LC): highly accumulated | elevation in lactic acid levels in activated CD8^+ T cells caused by exogenous lactic acid (CD8^+ T cells [7]; 13C-lactic acid tracing): counteracted | mitochondrial m+3 lactic acid, nuclear m+3 lactic acid and lactyl-CoA (CD8^+ T cells [7]; 13C-lactic acid tracing, after 24 hours): almost undetectable | oxidation products of lactic acid (m+2 citric acid, m+4 malic acid) (CD8^+ T cells [7]; after 24 hours): more oxidation products of lactic acid were detected | levels of intracellular lactic acid and histone Kla (CD8^+ T cells [7]; after 24 hours, versus control group): significantly lower | expression of the effectors IFN-γ and CD107a (4T1 breast cancer [8]; 4T1): increase | survival of mice (4T1 breast cancer [8]; 4T1): prolong | number of tumor-infiltrating CD8^+ T cells (4T1 breast cancer [8]; 4T1, treated as B16 model): increase | growth of 4T1 breast cancer (4T1 breast cancer [8]; mouse, in vivo): effectively inhibit | expression of the effectors IFN-γ and CD107a (MC38 colon cancer [9]; MC38): increase | survival of mice (MC38 colon cancer [9]; MC38): prolong | number of tumor-infiltrating CD8^+ T cells (MC38 colon cancer [9]; MC38, treated as B16 model): increase | growth of MC38 colon cancer (MC38 colon cancer [9]; mouse, in vivo): effectively inhibit | expression / localization of MCT1 in mitochondria (MCT1): significantly increased
